Assay results reported in article PMC4188250 (Biochemistry, 2014).
Like-named read-outs stand apart in the source and are kept apart here.

Experiments:
Cytochrome P450 4A11 [1] = biological target: T1, Cytochrome P450 4A11 (Homo sapiens, UniProt Q02928); assay: UV-visible spectral binding titration
T1 sequence (Q02928 5-519): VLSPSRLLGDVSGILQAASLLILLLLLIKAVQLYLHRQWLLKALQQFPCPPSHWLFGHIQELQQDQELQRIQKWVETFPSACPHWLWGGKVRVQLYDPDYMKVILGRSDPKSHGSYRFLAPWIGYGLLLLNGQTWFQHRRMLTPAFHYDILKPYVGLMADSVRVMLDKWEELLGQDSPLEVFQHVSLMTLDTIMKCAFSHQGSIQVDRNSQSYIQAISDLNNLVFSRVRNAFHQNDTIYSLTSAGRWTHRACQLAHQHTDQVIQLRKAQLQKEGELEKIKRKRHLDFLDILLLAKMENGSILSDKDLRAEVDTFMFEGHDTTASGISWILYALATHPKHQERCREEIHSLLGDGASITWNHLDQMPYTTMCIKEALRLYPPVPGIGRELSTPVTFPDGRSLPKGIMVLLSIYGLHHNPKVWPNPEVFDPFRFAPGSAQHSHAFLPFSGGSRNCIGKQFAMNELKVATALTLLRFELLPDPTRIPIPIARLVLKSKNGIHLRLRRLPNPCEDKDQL

Cytochrome P450 4A11 [2] = biological target: T1, Cytochrome P450 4A11; assay: UV-visible spectral binding titration; remark: listed apart in the source

Row | Kd (Cytochrome P450 4A11 [2]) [µM] | SMILES | Kd (Cytochrome P450 4A11 [1]) [µM]
1 | – | O=C(O)CCCCCCCCCCCO [12-OH lauric acid] | 5.1 ± 2.1
2 | 6.7 ± 0.3 | CCCCCCCCCCCC(=O)O [lauric acid, dodecanoic acid] | –
